These results are taken from ChEMBL document CHEMBL1201862, “PubChem BioAssay data set” (2004).

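Compound exposure: 48 hours, 5 concentrations, 96-well plates. The concentration for 50% growth inhibition is given as GI50.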 Active and inactive are the calls of the source. Rule as the data show it: active = GI50 up to about 1.1 µM and inactive = higher.

Among the test systems are RXF 631; T47D; PC-3; Hs-578T; MDA-N; MDA-MB-435; BT-549; DU-145; MDA-MB-231.
Holding throughout (assay): NCI anticancer screen, dose series, 48 h

Consider `CCOCc1cc(=O)c2c(O)cc3c(c2o1)CCC(C)(C)O3`, for which the GI50 in the assay on RXF 631 is > 100 µM (inactive).
Turning to `COc1cc(S(=O)(=O)Nc2ccc(-c3csc(N4C(=O)C(C)SC4c4cccc(Oc5ccccc5)c4)n3)cc2)ccc1Cl` (centres undefined), the GI50 in the assay with T47D was 29.6 µM (inactive); with PC-3, 43.9 µM (inactive); with Hs-578T, 34 µM (inactive); in the assay on MDA-N it was 27.7 µM (inactive); in the assay with MDA-MB-435, 32.6 µM (inactive); with BT-549, 26.7 µM (inactive). The GI50 in the assay on DU-145 is 35.3 µM (inactive).
As to `O=C1CSc2cc([N+](=O)[O-])ccc2N1`, in the assay with RXF 631, the GI50 was > 100 µM (inactive).
Regarding `CCOC(=O)c1cccc(NC(=O)CBr)c1`, the GI50 is 1.82 µM (inactive) in the assay on MDA-MB-231; 1.7 µM (inactive) in the assay with T47D; 1.55 µM (inactive) with PC-3; 2.72 µM (inactive) with Hs-578T; 1.4 µM (inactive) in the assay with MDA-N; 1.1 µM (active) in the assay on MDA-MB-435. Besides, the GI50 with BT-549 is 1.91 µM (inactive); in the assay on DU-145, 1.82 µM (inactive).
Take `CCOC(=O)C(Cc1c(-c2[nH]c3ccccc3c2CC(NC(=O)CNC(C)=O)C(=O)OCC)[nH]c2ccccc12)NC(=O)CNC(C)=O` (centres undefined): the GI50 in the assay with MDA-MB-231 was 16.5 µM (inactive); in the assay with PC-3, > 100 µM (inactive); in the assay on Hs-578T, 32.6 µM (inactive); in the assay on MDA-N it was > 100 µM (inactive); in the assay with MDA-MB-435, > 100 µM (inactive); with BT-549 it was > 100 µM (inactive). Moreover, the GI50 with DU-145 is > 100 µM (inactive).
Turning to `N#C[C@@H](c1nc2ccccc2s1)c1ncccc1[N+](=O)[O-]`, the GI50 was 7.83 µM (inactive) in the assay on MDA-MB-231; 4.18 µM (inactive) in the assay on T47D; 5.16 µM (inactive) with PC-3; 5.55 µM (inactive) in the assay on Hs-578T; 7.46 µM (inactive) with MDA-N; 13.4 µM (inactive) in the assay on MDA-MB-435. Also, the GI50 in the assay on BT-549 was 5 µM (inactive); in the assay with DU-145 it was 6.34 µM (inactive).
For `Clc1ccc(N/N=C(\c2ccccc2)c2ccccn2)nc1`, the GI50 with MDA-MB-231 was < 0.0187 µM (active); with T47D it was < 0.01 µM (active); in the assay with PC-3, 0.0463 µM (active); in the assay on Hs-578T, 0.456 µM (active); in the assay with MDA-N it was 2.48 µM (inactive); with MDA-MB-435 it was 0.627 µM (active). Further, the results for the GI50 in the assay with BT-549 and with DU-145 were 1.85 µM (inactive) and 0.333 µM (active), respectively.
On to `CC(=O)N(C(=O)CC(=O)N1N=C(C)C(/N=N/c2cccc([N+](=O)[O-])c2)C1=O)c1ccc(Cl)cc1` (centres undefined), for which the GI50 with MDA-MB-231, in the assay on T47D, in the assay with PC-3, in the assay with Hs-578T, in the assay with MDA-N and in the assay on MDA-MB-435 was > 10 µM (inactive) in each case. The GI50 with BT-549 and in the assay with DU-145 was > 10 µM (inactive) in each case.
Turning to `CCOC(=O)c1nc2ccc(OC)cc2c2c1Cc1ccccc1-2`, the GI50 with RXF 631 was 61.7 µM (inactive).
As for `COc1cc(/C=C(\C)[N+](=O)[O-])cc(OC)c1`, the GI50 with MDA-MB-231 is 16.7 µM (inactive); with T47D it was 6.47 µM (inactive); in the assay on PC-3 it was 20.1 µM (inactive); in the assay with Hs-578T, 26.9 µM (inactive); in the assay on MDA-N, 13 µM (inactive); in the assay on MDA-MB-435, 14.9 µM (inactive). For the same molecule, the GI50 was 19.2 µM (inactive) in the assay with BT-549 and 18.7 µM (inactive) in the assay on DU-145.
For the molecule `CN(C(=O)C12C3C4C1C1C2C3C41C(=O)C(C)(C)C)C(C)(C)C` (centres undefined), the GI50 in the assay with RXF 631 is > 100 µM (inactive).
Consider `COC(=O)/C=C\n1nc(Br)c(=O)[nH]c1=O`, for which the GI50 with MDA-MB-231, in the assay on T47D, in the assay with PC-3, in the assay with Hs-578T, in the assay on MDA-N and in the assay on MDA-MB-435 was > 100 µM (inactive) in each case. Also, the GI50 with BT-549 and in the assay on DU-145 was > 100 µM (inactive) in each case.
In the case of `c1ccc(Nc2nnc(CCCCCCCCc3nnc(Nc4ccccc4)o3)o2)cc1`, the GI50 in the assay on MDA-MB-231, in the assay with PC-3, in the assay with MDA-MB-435, in the assay with BT-549 and with DU-145 was > 100 µM (inactive) throughout.
As for `O=c1[nH]cnc2sc(=S)c3c(c12)CCC3`, the GI50 with MDA-MB-231 is 32.6 µM (inactive); with T47D it was 19.1 µM (inactive); in the assay with PC-3, 37 µM (inactive); in the assay with Hs-578T, 48.5 µM (inactive); with MDA-MB-435 it was 81.8 µM (inactive); in the assay with DU-145 it was 39 µM (inactive).
Consider `NC(CCOCCP(=O)(O)CCOCCC(N)C(=O)O)C(=O)O` (centres undefined), for which the GI50 with MDA-MB-231, in the assay with T47D, in the assay on Hs-578T, in the assay on MDA-MB-435 and with DU-145 was > 100 µM (inactive) each time.
For the molecule `O=S(O)c1cc(Cl)cc(Cl)c1OCc1ccccc1`, the GI50 in the assay on RXF 631 is > 100 µM (inactive).
Same read-out and setting: the figure for `OCC1C2C=CC(O2)[C@H]1CO` (some centres undefined) is > 100 µM (inactive).
